Assay [1] addresses Beta Secretase enzyme (BACE) (Homo sapiens (Human), UniProt P56817). The experiment in a line: In vitro enzymatic BACE FRET assay. To be noted: read-out: BACE1 Enzyme assay IC50. It is filed as biochemical.
Assay [2] has as its target Cathepsin D (Cat D) (Homo sapiens (Human), UniProt P07339). Briefly: In vitro enzymatic Cathepsin D (Cat D) FRET assay. To be noted: read-out: CatD IC50. The assay is classed as biochemical.
In assay [3] the target is BACE (Homo sapiens (Human), UniProt P56817). Briefly: In vitro BACE cell-based assay (Aβ40 in conditioned medium, sandwich ELISA).
Chain of BACE (P56817 46-501, species assumed): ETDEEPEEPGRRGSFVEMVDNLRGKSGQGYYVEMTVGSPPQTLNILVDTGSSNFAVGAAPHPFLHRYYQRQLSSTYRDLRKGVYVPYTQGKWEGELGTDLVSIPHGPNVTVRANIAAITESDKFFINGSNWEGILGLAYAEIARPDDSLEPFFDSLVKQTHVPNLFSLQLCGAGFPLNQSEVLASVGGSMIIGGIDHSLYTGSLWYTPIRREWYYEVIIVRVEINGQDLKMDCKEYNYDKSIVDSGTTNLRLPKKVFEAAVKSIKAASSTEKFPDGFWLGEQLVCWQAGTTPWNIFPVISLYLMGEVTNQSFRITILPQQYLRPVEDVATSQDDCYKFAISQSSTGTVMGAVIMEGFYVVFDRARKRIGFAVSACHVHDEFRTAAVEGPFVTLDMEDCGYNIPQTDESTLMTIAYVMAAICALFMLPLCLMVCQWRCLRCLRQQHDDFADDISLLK

The structures appear in SMILES notation.

As usually defined, the IC50 is the concentration at which inhibition is half-maximal.

Chain of Cathepsin D (Cat D) (P07339 65-412, species assumed): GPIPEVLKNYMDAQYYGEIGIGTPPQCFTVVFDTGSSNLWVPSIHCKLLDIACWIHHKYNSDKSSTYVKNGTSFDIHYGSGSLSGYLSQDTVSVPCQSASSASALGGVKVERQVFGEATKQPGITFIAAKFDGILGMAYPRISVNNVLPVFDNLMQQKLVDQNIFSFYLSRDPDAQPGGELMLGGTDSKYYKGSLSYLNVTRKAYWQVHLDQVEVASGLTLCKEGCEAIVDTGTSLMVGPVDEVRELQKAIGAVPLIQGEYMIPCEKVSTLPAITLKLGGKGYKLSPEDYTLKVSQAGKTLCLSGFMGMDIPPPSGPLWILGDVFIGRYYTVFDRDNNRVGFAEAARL
Chain of Beta Secretase enzyme (BACE) (P56817 46-501): as the sequence (P56817 46-501, species assumed) above

As to `NC1=N[C@@](c2cc(NC[C@@H]3C[C@H]3c3ccccc3)ccc2F)(C(F)F)[C@H]2C[C@H]2O1` [Example 371, (1R,5S,6R)-5-(difluoromethyl)-5-(2-fluoro-5-((((l(S,R),2(S,R))-2-phenylcyclopropyl)methyl)amino)phenyl)-2-oxa-4-azabicyclo[4.1.0]hept-3-en-3-amine], the figures for the IC50 in assay [1], in assay [2] and in assay [3] were 11.2 µM, 102 µM and 2.67 µM, respectively.

As for `NC1=N[C@@](c2cc(NC[C@H]3C[C@H]3c3ccccc3)ccc2F)(C(F)F)[C@H]2C[C@H]2O1` [Example 372, (1R,5S,6R)-5-(difluoromethyl)-5-(2-fluoro-5-((((1(S,R),2(R,S))-2-phenylcyclopropyl)methyl)amino)phenyl)-2-oxa-4-azabicyclo[4.1.0]hept-3-en-3-amine], the values for the IC50 in assay [1], in assay [2] and in assay [3] were 9.42 µM, 85.5 µM and 4.94 µM, respectively.

On to `C=C1CC(CNc2ccc(F)c([C@@]3(C(F)F)N=C(N)O[C@@H]4C[C@@H]43)c2)C1` [Example 375, (1R,5S,6R)-5-(difluoromethyl)-5-(2-fluoro-5-(((3-methylenecyclobutyl)methyl)amino)phenyl)-2-oxa-4-azabicyclo[4.1.0]hept-3-en-3-amine], for which the IC50 in assay [1] worked out at 6 µM; in assay [2], 78.9 µM; in assay [3] it was 2.53 µM.

As to `NC1=N[C@@](c2cc(NCC3(C(F)(F)F)CC3)ccc2F)(C(F)F)[C@H]2C[C@H]2O1` [Example 376, (1R,5S,6R)-5-(difluoromethyl)-5-(2-fluoro-5-(((1-(trifluoromethyl)cyclopropyl)methyl)amino)phenyl)-2-oxa-4-azabicyclo[4.1.0]hept-3-en-3-amine], the figures for the IC50 in assay [1], in assay [2] and in assay [3] were 2.1 µM, 52.9 µM and 1.15 µM, respectively.

As to `NC1=N[C@@](c2cc(NCc3ccc(Cl)cn3)ccc2F)(C(F)F)[C@H]2C[C@H]2O1` [Example 377, (1R,5S,6R)-5-(5-(((5-chloropyridin-2-yl)methyl)amino)-2-fluorophenyl)-5-(difluoromethyl)-2-oxa-4-azabicyclo[4.1.0]hept-3-en-3-amine], the IC50 in assay [1] came out at 2.85 µM; in assay [2], 177 µM; in assay [3] it was 1.11 µM.

For the compound `NC1=N[C@@](c2cc(NCC3CC3)ccc2F)(C(F)F)[C@H]2C[C@H]2O1` [Example 379, (1R,5S,6R)-5-(5-((cyclopropylmethyl)amino)-2-fluorophenyl)-5-(difluoromethyl)-2-oxa-4-azabicyclo[4.1.0]hept-3-en-3-amine], the 50% inhibitory concentration (IC50) in assay [1] worked out at 1.41 µM; in assay [2], 188 µM; in assay [3] it was 0.564 µM.

For the compound `COCc1cc(C#N)cnc1C(=O)Nc1ccc(Cl)c([C@@]2(CF)N=C(N)O[C@@H]3C[C@@H]32)c1` [Example 386, N-(3-((1R,5S,6R)-3-amino-5-(fluoromethyl)-2-oxa-4-azabicyclo[4.1.0]hept-3-en-5-yl)-4-chlorophenyl)-5-cyano-3-(methoxymethyl)picolinamide], the IC50 turned out to be 0.0251 µM in assay [1], 1820 µM in assay [2] and 0.0085 µM in assay [3].

`N#Cc1cnc(C(=O)Nc2ccc(Cl)c([C@@]3(CF)N=C(N)O[C@@H]4C[C@@H]43)c2)c(CO)c1` [Example 387, N-(3-((1R,5S,6R)-3-amino-5-(fluoromethyl)-2-oxa-4-azabicyclo[4.1.0]hept-3-en-5-yl)-4-chlorophenyl)-5-cyano-3-(hydroxymethyl)picolinamide]: the IC50 in assay [1] came to 0.0391 µM; in assay [2], 352 µM; in assay [3] it was 0.0145 µM.

Consider `CN(C)c1cc(C#N)cnc1C(=O)Nc1ccc(F)c([C@@]2(C(F)F)N=C(N)O[C@@H]3C[C@@H]32)c1` [Example 389, N-(3-((1R,5S,6R)-3-amino-5-(difluoromethyl)-2-oxa-4-azabicyclo[4.1.0]hept-3-en-5-yl)-4-fluorophenyl)-5-cyano-3-(dimethylamino)picolinamide], for which the values for the half-inhibitory concentration (IC50) in assay [1], in assay [2] and in assay [3] were 0.0915 µM, 732 µM and 0.0747 µM, respectively.

Take `N#Cc1cnc2c(Nc3ccc(F)c([C@@]4(CF)N=C(N)O[C@@H]5C[C@@H]54)c3)ncnc2c1` [Example 393, 4-((3-((1R,5S,6R)-3-amino-5-(fluoromethyl)-2-oxa-4-azabicyclo[4.1.0]hept-3-en-5-yl)-4-fluorophenyl)amino)pyrido[3,2-d]pyrimidine-7-carbonitrile]: the IC50 amounted to 0.198 µM in assay [1], 147 µM in assay [2] and 0.0243 µM in assay [3].

Regarding `CC(C)c1cc(C#N)cnc1C(=O)Nc1ccc(F)c([C@@]2(C(F)F)N=C(N)O[C@@H]3C[C@@H]32)c1` [Example 394, N-(3-((1R,5S,6R)-3-amino-5-(difluoromethyl)-2-oxa-4-azabicyclo[4.1.0]hept-3-en-5-yl)-4-fluorophenyl)-5-cyano-3-isopropylpicolinamide], the IC50 stood at 0.134 µM in assay [1], 1070 µM in assay [2] and 0.289 µM in assay [3].

On to `N#Cc1cnc(C(=O)Nc2ccc(F)c([C@@]3(C(F)F)N=C(N)O[C@@H]4C[C@@H]43)c2)c(C(F)F)c1` [Example 395, N-(3-((1R,5S,6R)-3-amino-5-(difluoromethyl)-2-oxa-4-azabicyclo[4.1.0]hept-3-en-5-yl)-4-fluorophenyl)-5-cyano-3-(difluoromethyl)picolinamide], for which the values for the half-inhibitory concentration (IC50) in assay [1], in assay [2] and in assay [3] were 0.0144 µM, 477 µM and 0.0737 µM, respectively.

Turning to `N#Cc1cnc(C(=O)Nc2ccc(F)c([C@@]3(C(F)F)N=C(N)O[C@@H]4C[C@@H]43)c2)c(CO)c1` [Example 396, N-(3-((1R,5S,6R)-3-amino-5-(difluoromethyl)-2-oxa-4-azabicyclo[4.1.0]hept-3-en-5-yl)-4-fluorophenyl)-5-cyano-3-(hydroxymethyl)picolinamide], the figures for the IC50 in assay [1], in assay [2] and in assay [3] were 0.017 µM, 198 µM and 0.151 µM, respectively.

In the case of `COc1cc(C#N)cnc1C(=O)Nc1ccc(Cl)c([C@@]2(CF)N=C(N)O[C@@H]3C[C@@H]32)c1` [Example 397, N-(3-((1R,5S,6R)-3-amino-5-(fluoromethyl)-2-oxa-4-azabicyclo[4.1.0]hept-3-en-5-yl)-4-chlorophenyl)-5-cyano-3-methoxypicolinamide], the IC50 is 0.081 µM in assay [1], greater than 400 µM in assay [2] and 0.009 µM in assay [3].

Take `Cc1cc(NC(=O)c2ncc(C#N)cc2F)cc([C@@]2(C(F)F)N=C(N)O[C@@H]3C[C@@H]32)c1F` [Example 398, N-(3-((1R,5S,6R)-3-amino-5-(difluoromethyl)-2-oxa-4-azabicyclo[4.1.0]hept-3-en-5-yl)-4-fluoro-5-methylphenyl)-5-cyano-3-fluoropicolinamide]: the IC50 stood at 0.0335 µM in assay [1], 690 µM in assay [2] and 0.0123 µM in assay [3].

Regarding `COc1cc(C#N)cnc1C(=O)Nc1cc(C)c(F)c([C@@]2(C(F)F)N=C(N)O[C@@H]3C[C@@H]32)c1` [Example 399, N-(3-((1R,5S,6R)-3-amino-5-(difluoromethyl)-2-oxa-4-azabicyclo[4.1.0]hept-3-en-5-yl)-4-fluoro-5-methylphenyl)-5-cyano-3-methoxypicolinamide], the IC50 in assay [1] amounted to 0.0706 µM; in assay [2], 1090 µM; in assay [3] it was 0.0208 µM.

Take `NC1=N[C@@](c2cc(NC(=O)c3ccc(C#CC4CC4)cn3)ccc2F)(C(F)F)[C@H]2C[C@H]2O1` [Example 405, N-(3-((1R,5S,6R)-3-amino-5-(difluoromethyl)-2-oxa-4-azabicyclo[4.1.0]hept-3-en-5-yl)-4-fluorophenyl)-5-(cyclopropylethynyl)picolinamide]: the values for the IC50 in assay [1], in assay [2] and in assay [3] were 0.0237 µM, 399 µM and 0.215 µM, respectively.

As to `NC1=N[C@@](c2cc(Nc3nccc4cc(C#CC5CC5)cnc34)ccc2F)(C(F)F)[C@H]2C[C@H]2O1` [Example 406, (1R,5S,6R)-5-(5-((3-(cyclopropylethynyl)-1,7-naphthyridin-8-yl)amino)-2-fluorophenyl)-5-(difluoromethyl)-2-oxa-4-azabicyclo[4.1.0]hept-3-en-3-amine], the IC50 in assay [1] was 0.0759 µM; in assay [2], 8910 µM; in assay [3], 0.861 µM.

Take `NC1=N[C@@](c2cc(NC(=O)c3cnc(C#CC4CC4)cn3)ccc2F)(C(F)F)[C@H]2C[C@H]2O1` [Example 407, N-(3-((1R,5S,6R)-3-amino-5-(difluoromethyl)-2-oxa-4-azabicyclo[4.1.0]hept-3-en-5-yl)-4-fluorophenyl)-5-(cyclopropylethynyl)pyrazine-2-carboxamide]: the IC50 in assay [1] turned out to be 0.0296 µM; in assay [2], 170 µM; in assay [3] it was 0.301 µM.

`NC1=N[C@@](c2cc(Nc3ncc(F)c4cc(C#CC5CC5)cnc34)ccc2F)(C(F)F)[C@H]2C[C@H]2O1` [Example 408, (1R,5S,6R)-5-(5-((3-(cyclopropylethynyl)-5-fluoro-1,7-naphthyridin-8-yl)amino)-2-fluorophenyl)-5-(difluoromethyl)-2-oxa-4-azabicyclo[4.1.0]hept-3-en-3-amine]: the IC50 was found to be 0.0463 µM in assay [1], 347 µM in assay [2] and 1.58 µM in assay [3].

Take `CC1(C#Cc2ccc(C(=O)Nc3ccc(F)c([C@@]4(C(F)F)N=C(N)O[C@@H]5C[C@@H]54)c3)nc2)COC1` [Example 409, N-(3-((1R,5S,6R)-3-amino-5-(difluoromethyl)-2-oxa-4-azabicyclo[4.1.0]hept-3-en-5-yl)-4-fluorophenyl)-5-((3-methyloxetan-3-yl)ethynyl)picolinamide]: the IC50 is 0.327 µM in assay [1], 748 µM in assay [2] and 0.514 µM in assay [3].

For the compound `NC1=N[C@@](c2cc(NC(=O)c3cnc(OCC#CC4CC4)cn3)ccc2F)(C(F)F)[C@H]2C[C@H]2O1` [Example 411, N-(3-((1R,5S,6R)-3-amino-5-(difluoromethyl)-2-oxa-4-azabicyclo[4.1.0]hept-3-en-5-yl)-4-fluorophenyl)-5-((3-cyclopropylprop-2-yn-1-yl)oxy)pyrazine-2-carboxamide], the IC50 in assay [1] is 0.0076 µM; in assay [2], 360 µM; in assay [3], 0.112 µM.

These data come from patent publication US9085576B2 (AMGEN INC., priority 2013, dated 2015).
